The subject of test [1] is proline tolerant tripeptidyl peptidase (TRI083). Put plainly: Hydrolysis of 33-mer gliadin peptide, LC-MS label-free quantification. It counts as biochemical. Particulars: for Relative MS peak intensities: 24° C., pH 4.5. The method, then:
The 33-mer of gliadin (alpha-2-gliadin) (aa56-88) H-[…]-OH (Zedira GmbH; D-64293 Darmstadt, Germany) C190H273N43O47 (MW=3911.46) (1 mg/ml; 0.26 mM) was incubated at 24° C. in the presence of proline tolerant tripeptidyl peptidase (0.01 mg/ml TRI083) in a total volume of 1000 ul buffer (pH=4.5) (the ratio substrate/enzyme 100:1, w/w). Aliquots (100 ul) of enzyme reaction were stopped with 20 ul 5% trifluoroacetic acid (TFA) after 0, 1, 3, 5, 10, 15 and 30 minutes, respectively. The samples were then transferred to new vials and analyzed on the LTQ Orbitrap mass spectrometer.
The LC-MS/MS data was manually annotated using GPMAW to calculate theoretical values of fragmentation.

For test [2], the system named is H-Ala-Ala-Phe-pNA. Put plainly: Low pH stability of tripeptidyl peptidases (pH 2.5, 40° C., 60 min), activity on H-Ala-Ala-Phe-pNA. It counts as biochemical. The conditions noted are these: for OD410nm (Final): after pH 2.5, 40° C., 60 min; for OD410nm (Initial): without incubation at 40° C. for 60 min. How it is done:
As requirements for utilization of the enzymes in feed for monogastric animals, the enzymes should be active at lower pH. For this reason the number of tripeptidyl peptidases has been tested with the reaction on synthetic substrate AAF (H-Ala-Ala-Phe-pNA. BACHEM, L-1095), at pH 2.5.
The tripeptide substrate AAF was prepared at 2.5 mg/ml in DMSO. Tripeptidyl peptidases were used as broth. The reaction mixture containing 2.5 μl enzyme and 90 μL glycine acetic acid-Tris buffer (each buffer components at 50 mM, pH 2.5) was prepared in 96 well incubation plates.
The incubation plate was mixed and incubated at 40° C. for 60 min. Then 50 μl 0.2M Mes-NaOH pH6.0 was added to each well, mixed at 600 rpm for 2 min. After that, 5 ul of the incubation mixture were taken to 96 well assay plate already filled with 85 μl 0.1M acetic acid buffer, pH4.0 and 5 μl 2.5 mg/ml AAF substrate solution.
The reaction mixture was stirred at 600 rpm for 2 min and read directly in a microplate reader (Molecular Devices, Denmark) at 410 nm at 30° C. every 30 second for 15 min.
To measure initial enzyme activity, similar procedure was performed except the step of enzyme incubation at 40° C. for 60 min.

Sequence of proline tolerant tripeptidyl peptidase (TRI083) (as listed by the source): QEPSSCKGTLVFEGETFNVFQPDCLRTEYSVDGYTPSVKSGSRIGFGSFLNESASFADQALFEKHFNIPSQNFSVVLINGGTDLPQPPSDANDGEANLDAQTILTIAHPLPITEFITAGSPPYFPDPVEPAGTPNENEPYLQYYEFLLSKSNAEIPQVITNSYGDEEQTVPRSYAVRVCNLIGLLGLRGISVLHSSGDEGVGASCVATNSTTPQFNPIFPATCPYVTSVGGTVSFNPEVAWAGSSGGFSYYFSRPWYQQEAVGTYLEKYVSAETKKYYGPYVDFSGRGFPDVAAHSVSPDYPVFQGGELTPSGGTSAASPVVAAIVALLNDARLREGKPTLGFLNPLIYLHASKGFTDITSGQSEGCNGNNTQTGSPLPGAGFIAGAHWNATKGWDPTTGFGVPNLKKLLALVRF

Turning to “H-LQLQPFPQPQLPYPQPQLPYPQPQLPYPQPQPF-OH [Alpha-2 gliadin, 33-mer of gliadin (alpha-2-gliadin) (aa56-88), substrate, reference compound]”, the “Relative MS peak intensities” value in test [1] (0 min with TRI083 0.01 mg/ml) was found to be 100; in test [1] (1 min with TRI083 0.01 mg/ml), 10; in test [1] (3 min with TRI083 0.01 mg/ml), 0; in test [1] (5 min with TRI083 0.01 mg/ml), 0; in test [1] (10 min with TRI083 0.01 mg/ml), 0; in test [1] (15 min with TRI083 0.01 mg/ml), 0. In test [1] (30 min with TRI083 0.01 mg/ml), the “Relative MS peak intensities” value turned out to be 0. Besides, the “detectability of the intact peptide over time” value in test [1] (TRI083 0.01 mg/ml, substrate/enzyme 100:1) was “not detectable after 3 min”. The “cleavage by proline tolerant tripeptidyl peptidase” value in test [1] (proline in P3,P2,P1,P1′,P2′ and P3′ positions) is “consecutively into tri-peptides irrespective of a high proline content”.

Take LPY: the “Relative MS peak intensities” value was 5 in test [1] (0 min with TRI083 0.01 mg/ml); 21 in test [1] (1 min with TRI083 0.01 mg/ml); 46 in test [1] (3 min with TRI083 0.01 mg/ml); 62 in test [1] (5 min with TRI083 0.01 mg/ml); 90 in test [1] (10 min with TRI083 0.01 mg/ml); 100 in test [1] (15 min with TRI083 0.01 mg/ml). Further, the “Relative MS peak intensities” value in test [1] (30 min with TRI083 0.01 mg/ml) is given as 94.

In the case of LQL, the “Relative MS peak intensities” value stood at 3 in test [1] (0 min with TRI083 0.01 mg/ml); 91 in test [1] (1 min with TRI083 0.01 mg/ml); 88 in test [1] (3 min with TRI083 0.01 mg/ml); 94 in test [1] (5 min with TRI083 0.01 mg/ml); 94 in test [1] (10 min with TRI083 0.01 mg/ml); 100 in test [1] (15 min with TRI083 0.01 mg/ml). In test [1] (30 min with TRI083 0.01 mg/ml), the “Relative MS peak intensities” value was 100.

Regarding PQL, the “Relative MS peak intensities” value in test [1] (0 min with TRI083 0.01 mg/ml) is reported as 8; in test [1] (1 min with TRI083 0.01 mg/ml), 21; in test [1] (3 min with TRI083 0.01 mg/ml) it was 30; in test [1] (5 min with TRI083 0.01 mg/ml) it was 32; in test [1] (10 min with TRI083 0.01 mg/ml), 42; in test [1] (15 min with TRI083 0.01 mg/ml) it was 58. The “Relative MS peak intensities” value in test [1] (30 min with TRI083 0.01 mg/ml) is 100.

In the case of PYP, the “Relative MS peak intensities” value in test [1] (0 min with TRI083 0.01 mg/ml) is recorded as 4; in test [1] (1 min with TRI083 0.01 mg/ml), 7; in test [1] (3 min with TRI083 0.01 mg/ml), 12; in test [1] (5 min with TRI083 0.01 mg/ml), 15; in test [1] (10 min with TRI083 0.01 mg/ml), 28; in test [1] (15 min with TRI083 0.01 mg/ml) it was 48. In addition, the “Relative MS peak intensities” value in test [1] (30 min with TRI083 0.01 mg/ml) was found to be 101.

QPF: the “Relative MS peak intensities” value turned out to be 0 in test [1] (0 min with TRI083 0.01 mg/ml); 4 in test [1] (1 min with TRI083 0.01 mg/ml); 55 in test [1] (3 min with TRI083 0.01 mg/ml); 7 in test [1] (5 min with TRI083 0.01 mg/ml); 129 in test [1] (10 min with TRI083 0.01 mg/ml); 26 in test [1] (15 min with TRI083 0.01 mg/ml). Besides, in test [1] (30 min with TRI083 0.01 mg/ml), the “Relative MS peak intensities” value is 100.

Turning to “YPQPQLPYPQPQLPYPQPQPF [intermediate product of alpha-2-gliadin hydrolysis]”, the “Relative MS peak intensities” value in test [1] (0 min with TRI083 0.01 mg/ml) came out at 79; in test [1] (1 min with TRI083 0.01 mg/ml), 100; in test [1] (3 min with TRI083 0.01 mg/ml), 52; in test [1] (5 min with TRI083 0.01 mg/ml) it was 23; in test [1] (10 min with TRI083 0.01 mg/ml), 23; in test [1] (15 min with TRI083 0.01 mg/ml), 23. For the same molecule, in test [1] (30 min with TRI083 0.01 mg/ml), the “Relative MS peak intensities” value was 20.

B1: TRI050: tripeptidyl peptidase, SEQ ID No. 7/SEQ ID No. 34, used as broth (protein, listed as Fusarium graminearum)
chain 1: KSYSHHAEAPKGWKVDDTARVASTGKQQVFSIALTMQNVDQLESKLLDLSSPDSKNYGQWMSQKDVTTAFYPSKEAVSSVTKWLKSKGVKHYNVNGGFIDFALDVKGANALLDSDYQYYTKEGQTKLRTLSYSIPDDVAEHVQFVDPSTNFGGTLAFAPVTHPSRTLTERKNKPTKSTVDASCQTSITPSCLKQMYNIGDYTPKVESGSTIGFSSFLGESAIYSDVFLFEEKFGIPTQNFTTVLINNGTDDQNTAHKNFGEADLDAENIVGIAHPLPFTQYITGGSPPFLPNIDQPTAADNQNEPYVPFFRYLLSQKEVPAVVSTSYGDEEDSVPREYATMTCNLIGLLGLRGISVIFSSGDIGVGAGCLGPDHKTVEFNAIFPATCPYLTSVGGTVDVTPEIAWEGSSGGFSKYFPRPSYQDKAVKTYMKTVSKQTKKYYGPYTNWEGRGFPDVAGHSVSPNYEVIYAGKQSASGGTSAAAPVWAAIVGLLNDARFRAGKPSLGWLNPLVYKYGPKVLTDITGGYAIGCDGNNTQSGKPEPAGSGIVPGARWNATAGWDPVTGYGTPDFGKLKDLVLSF
chain 2: CQTSITPSCLKQMYNIGDYTPKVESGSTIGFSSFLGESAIYSDVFLFEEKFGIPTQNFTTVLINNGTDDQNTAHKNFGEADLDAENIVGIAHPLPFTQYITGGSPPFLPNIDQPTAADNQNEPYVPFFRYLLSQKEVPAVVSTSYGDEEDSVPREYATMTCNLIGLLGLRGISVIFSSGDIGVGAGCLGPDHKTVEFNAIFPATCPYLTSVGGTVDVTPEIAWEGSSGGFSKYFPRPSYQDKAVKTYMKTVSKQTKKYYGPYTNWEGRGFPDVAGHSVSPNYEVIYAGKQSASGGTSAAAPVWAAIVGLLNDARFRAGKPSLGWLNPLVYKYGPKVLTDITGGYAIGCDGNNTQSGKPEPAGSGIVPGARWNATAGWDPVTGYGTPDFGKLKDLVLS
modifications: used as fermentation broth
As to B1, the “OD410nm (Final)” value in test [2] is given as 0.814; in test [2] (listed as TRI050.3), 0.501. Moreover, the “OD410nm (Initial)” value in test [2] is recorded as 0.895; in test [2] (listed as TRI050.3) it was 0.603.

B2: TRI053.1: tripeptidyl peptidase, SEQ ID No. 10/SEQ ID No. 37, used as broth (protein, listed as Aspergillus kawachii)
chain 1: VVHEKLAAVPSGWHHLEDAGSDHQISLSIALARKNLDQLESKLKDLSTPGESQYGQWLDQEEVDTLFPVASDKAVISWLRSANITHIARQGSLVNFATTVDKVNKLLNTTFAYYQRGSSQRLRTTEYSIPDDLVDSIDLISPTTFFGKEKTSAGLTQRSQKVDNHVAKRSNSSSCADTITLSCLKEMYNFGNYTPSASSGSKLGFASFLNESASYSDLAKFERLFNLPSQNFSVELINGGVNDQNQSTASLTEADLDVELLVGVGHPLPVTEFITSGEPPFIPDPDEPSAADNENEPYLQYYEYLLSKPNSALPQVISNSYGDDEQTVPEYYAKRVCNLIGLVGLRGISVLESSGDEGIGSGCRTTDGTNSTQFNPIFPATCPYVTAVGGTMSYAPEIAWEASSGGFSNYFERAWFQKEAVQNYLANHITNETKQYYSQFANFSGRGFPDVSAHSFEPSYEVIFYGARYGSGGTSAACPLFSALVGMLNDARLRAGKSTLGFLNPLLYSKGYKALTDVTAGQSIGCNGIDPQSDEAVAGAGIIPWAHWNATVGWDPVTGLGLPDFEKLRQLVLSL
chain 2: CADTITLSCLKEMYNFGNYTPSASSGSKLGFASFLNESASYSDLAKFERLFNLPSQNFSVELINGGVNDQNQSTASLTEADLDVELLVGVGHPLPVTEFITSGEPPFIPDPDEPSAADNENEPYLQYYEYLLSKPNSALPQVISNSYGDDEQTVPEYYAKRVCNLIGLVGLRGISVLESSGDEGIGSGCRTTDGTNSTQFNPIFPATCPYVTAVGGTMSYAPEIAWEASSGGFSNYFERAWFQKEAVQNYLANHITNETKQYYSQFANFSGRGFPDVSAHSFEPSYEVIFYGARYGSGGTSAACPLFSALVGMLNDARLRAGKSTLGFLNPLLYSKGYKALTDVTAGQSIGCNGIDPQSDEAVAGAGIIPWAHWNATVGWDPVTGLGLPDFEKLRQLVLS
modifications: used as fermentation broth
B2: in test [2], the “OD410nm (Final)” value came out at 0.356 and the “OD410nm (Initial)” value is recorded as 0.345.
